# Where two headings read alike, the source gives them in different places. Square brackets hold non-standard residues; d marks the D form. Ends that are not written are not given here. Peptide text beside a SMILES is read from it. * marks the point of attachment. hSer(lactone) = O=C1OCC[C@@H]1N*; hSer = N[C@@H](CCO)C(=O)O
# Columns and labels:
# S. epidermidis SE10 = system: S. epidermidis SE10
# Description: (§1) In the present case, the antimicrobial activities of MBI-11B7CN, MBI-11B7HSL (homoserine lactone form) and MBI-11B7HS (homoserine form) were tested against various gram-negative and gram-positive strains, including antibiotic resistant strains. The assay was performed as described in “Methods for Dilution Antimicrobial Susceptibility Tests for Bacteria That Grow Aerobically-Fourth Edition; Approved Standard” NCCLS document M7-A4 (ISBN 1-56238-309-4) Vol. 17, No. 2 (1977).
# (§2) The antimicrobial activities of the chemically synthesized MBI-11B7CN peptide and recombinant DNA synthesized MBI-11B7HSL (homoserine lactone form) and MBI-11B7HS (homoserine form) peptides were tested against various gram-negative and positive strains of bacteria, including antibiotic resistant strains. The Agarose Dilution Assay was performed as described in “Methods for Dilution Antimicrobial Susceptibility Tests for Bacteria That Grow Aerobically-Fourth Edition; Approved Standard” NCCLS document M7-A4 (ISBN 1-56238-309-4) Vol. 17, No 2 (1977).
# (§3) The agarose dilution assay measures antimicrobial activity of peptides and peptide analogues, which is expressed as the minimum inhibitory concentration (MIC) of the peptides.
# (§4) In order to mimic in vivo conditions, calcium and magnesium supplemented Mueller Hinton broth is used in combination with a low EEO agarose as the bacterial growth medium. Agarose, rather than agar, is used as the charged groups in agar prevent peptide diffusion through the media. The medium is autoclaved and then cooled to 50° C.-55° C. in a water bath before aseptic addition of anti-microbial solutions. The same volume of different concentrations of peptide solution are added to the cooled molten agarose, which is then poured to a depth of 3-4 mm.
# (§5) The bacterial inoculum is adjusted to a 0.5 McFarland turbidity standard (PML Microbiological) and then diluted 1:10 before application on to the agarose plate. The final inoculum applied to the agarose is approximately 10^4 CFU in a 5-8 mm diameter spot. The agarose plates are incubated at 35° C.-37° C. for 16 to 20 hours.
# S. maltophilia SMA2 = system: S. maltophilia SMA2
# Description: as §1, §2, §3, §4, §5
# S. aureus SA93 = system: S. aureus SA93
# Description: as §1, §2, §3, §4, §5
# E. cloacae ECL7 = system: E. cloacae ECL7
# Description: as §1, §2, §3, §4, §5
# P. aeruginosa PA4 = system: P. aeruginosa PA4
# Description: as §1, §2, §3, §4, §5
# K. pneumoniae KP1 = system: K. pneumoniae KP1
# Description: as §1, §2, §3, §4, §5
# S. marcescens SMS3 = system: S. marcescens SMS3
# Description: as §1, §2, §3, §4, §5
# E. faecalis EFS8 = system: E. faecalis EFS8
# Description: as §1, §2, §3, §4, §5
# E. coli ECO5 = system: E. coli ECO5
# Description: as §1, §2, §3, §4, §5
# E. faecalis EFS1 = system: E. faecalis EFS1
# Description: as §1, §2, §3, §4, §5
# S. aureus SA14 = system: S. aureus SA14
# Description: as §1, §2, §3, §4, §5
# A. calcoaceticus AC2 = system: A. calcoaceticus AC2
# Description: as §1, §2, §3, §4, §5
# [1] = S. epidermidis, organism # SE10, source Chow, agarose dilution
# [2] = S. maltophilia, organism # SMA2, source ATCC, agarose dilution
# [3] = S. aureus, organism # SA93, source Bayer, agarose dilution
# [4] = E. cloacae, organism # ECL7, source ATCC, agarose dilution
# [5] = P. aeruginosa, organism # PA4, source ATCC, agarose dilution
# [6] = K. pneumoniae, organism # KP1, source ATCC, agarose dilution
# [7] = S. marcescens, organism # SMS3, source ATCC, agarose dilution
# [8] = E. faecalis, organism # EFS8, source ATCC, agarose dilution
# [9] = E. coli, organism # ECO5, source ATCC, agarose dilution
# [10] = E. faecalis, organism # EFS1, source ATCC, agarose dilution
# [11] = S. aureus, organism # SA14, source Bayer, agarose dilution
# [12] = A. calcoaceticus, organism # AC2, source ATCC, agarose dilution
Compound,MIC (S. epidermidis SE10; [1]),MIC (S. maltophilia SMA2; [2]),MIC (S. aureus SA93; [3]),MIC (E. cloacae ECL7; [4]),MIC (P. aeruginosa PA4; [5]),MIC (K. pneumoniae KP1; [6]),MIC (S. marcescens SMS3; [7]),MIC (E. faecalis EFS8; [8]),MIC (E. coli ECO5; [9]),MIC (E. faecalis EFS1; [10]),MIC (S. aureus SA14; [11]),MIC (A. calcoaceticus AC2; [12]),other results
CC[C@H](C)[C@H](N)C(=O)N[C@@H](CC(C)C)C(=O)N[C@@H](CCCNC(=N)N)C(=O)N[C@@H](Cc1c[nH]c2ccccc12)C(=O)N1CCC[C@H]1C(=O)N[C@@H](Cc1c[nH]c2ccccc12)C(=O)N[C@@H](Cc1c[nH]c2ccccc12)C(=O)N1CCC[C@H]1C(=O)N[C@@H](Cc1c[nH]c2ccccc12)C(=O)N[C@@H](CCCNC(=N)N)C(=O)N[C@@H](CCCNC(=N)N)C(=O)N[C@@H](CCCCN)C(=O)N[C@@H](CCO)C(=O)O [11B7HS] (H-ILRWPWWPWRRK[hSer]-OH; N-terminus assumed),–,–,–,–,–,–,–,–,–,–,–,–,MIC (S. epidermidis SE10; SE10): 8 µg/mL; MIC (S. maltophilia SMA2; SMA2): 64 µg/mL; MIC (S. aureus SA93; SA93): 1 µg/mL; MIC (E. cloacae ECL7; ECL7): >64 µg/mL; MIC (P. aeruginosa PA4; PA4): >64 µg/mL; MIC (K. pneumoniae KP1; KP1): 32 µg/mL; MIC (S. marcescens SMS3; SMS3): >64 µg/mL; MIC (E. faecalis EFS8; EFS8): 32 µg/mL; MIC (E. coli ECO5; ECO5): 32 µg/mL; MIC (E. faecalis EFS1; EFS1): 2 µg/mL; MIC (S. aureus SA14; SA14): 2 µg/mL; MIC (A. calcoaceticus AC2): 2 µg/mL
ILRWPWWPWRRK-NH2 [11B7CN],2 µg/mL,32 µg/mL,1 µg/mL,>64 µg/mL,>64 µg/mL,8 µg/mL,>64 µg/mL,16 µg/mL,8 µg/mL,2 µg/mL,4 µg/mL,2 µg/mL,–
CC[C@H](C)[C@H](N)C(=O)N[C@@H](CC(C)C)C(=O)N[C@@H](CCCNC(=N)N)C(=O)N[C@@H](Cc1c[nH]c2ccccc12)C(=O)N1CCC[C@H]1C(=O)N[C@@H](Cc1c[nH]c2ccccc12)C(=O)N[C@@H](Cc1c[nH]c2ccccc12)C(=O)N1CCC[C@H]1C(=O)N[C@@H](Cc1c[nH]c2ccccc12)C(=O)N[C@@H](CCCNC(=N)N)C(=O)N[C@@H](CCCNC(=N)N)C(=O)N[C@@H](CCCCN)C(=O)N[C@H]1CCOC1=O [11B7HSL] (H-ILRWPWWPWRRK-{hSer(lactone)}; N-terminus assumed),4 µg/mL,32 µg/mL,1 µg/mL,>64 µg/mL,>64 µg/mL,8 µg/mL,>64 µg/mL,16 µg/mL,8 µg/mL,1 µg/mL,1 µg/mL,4 µg/mL,–
